In PMC6211260 (Journal of Enzyme Inhibition and Medicinal Chemistry, 2018):
Where two headings read alike, the source gives them in different places.

What was measured:
Format in all cases: cell-based
[1] = test system: Leukaemia cell lines; assay: NCI five-dose testing, subpanel mean; conditions: subpanel I: Leukaemia
Method: (§1) Screening against the cancer cell lines was carried out at the National Cancer Institute (NCI, Bethesda, Maryland, USA) applying the standard protocol of the NCI[22].

[2] = test system: ovarian cancer cell lines; assay: NCI five-dose testing, subpanel mean; conditions: subpanel VI: ovarian cancer
Method: as §1

[3] = test system: renal cancer cell lines; assay: NCI five-dose testing, subpanel mean; conditions: subpanel VII: renal cancer
Method: as §1

[4] = test system: prostate cancer cell lines; assay: NCI five-dose testing, subpanel mean; conditions: subpanel VIII: prostate cancer
Method: as §1

[5] = test system: CNS cancer cell lines; assay: NCI five-dose testing, subpanel mean; conditions: subpanel IV: CNS cancer
Method: as §1

[6] = test system: colon cancer cell lines; assay: NCI five-dose testing, subpanel mean; conditions: subpanel III: colon cancer
Method: as §1

[7] = test system: breast cancer cell lines; assay: NCI five-dose testing, subpanel mean; conditions: subpanel IX: breast cancer
Method: as §1

[8] = test system: non-small cell lung cancer cell lines; assay: NCI five-dose testing, subpanel mean; conditions: subpanel II: non-small cell lung cancer
Method: as §1

[9] = test system: melanoma cell lines; assay: NCI five-dose testing, subpanel mean; conditions: subpanel V: melanoma
Method: as §1

[10] = test system: PC-3 prostate cancer cell line; assay: NCI five-dose testing; conditions: for LD50 (lethal dose 50) / IC50 / IC (TGI): PC-3; for IC50: read-out: IC50; for IC (TGI): read-out: TGI (total growth inhibition concentration)
Method: as §1

[11] = test system: HOP-92 non-small cell lung cancer cell line; assay: NCI five-dose testing; conditions: for IC (TGI): read-out: TGI (total growth inhibition concentration)
Method: as §1

[12] = test system: HT-29 colon cancer cell line; assay: NCI five-dose testing; conditions: for LD50 (lethal dose 50) / IC50 / IC (TGI): HT-29; for IC50: read-out: IC50; for IC (TGI): read-out: TGI (total growth inhibition concentration)
Method: as §1

[13] = test system: SK-MEL-5 melanoma cell line; assay: NCI five-dose testing; conditions: for IC50 / LD50 (lethal dose 50) / IC (TGI): SK-MEL-5; for IC (TGI): read-out: TGI (total growth inhibition concentration)
Method: as §1

[14] = test system: U251 CNS cancer cell line; assay: NCI five-dose testing; conditions: for LD50 (lethal dose 50) / IC50 / IC (TGI): U251; for IC50: read-out: IC50; for IC (TGI): read-out: TGI (total growth inhibition concentration)
Method: as §1

[15] = test system: K-562 leukaemia cell line; assay: NCI five-dose testing; conditions: for IC50 / LD50 (lethal dose 50) / IC (TGI): K-562; for IC (TGI): read-out: TGI (total growth inhibition concentration)
Method: as §1

[16] = test system: OVCAR-4 ovarian cancer cell line; assay: NCI five-dose testing; conditions: for IC50 / LD50 (lethal dose 50) / IC (TGI): OVCAR-4; for IC (TGI): read-out: TGI (total growth inhibition concentration)
Method: as §1

[17] = test system: MDA-MB-468 breast cancer cell line; assay: NCI five-dose testing; conditions: for IC50 / LD50 (lethal dose 50) / IC (TGI): MDA-MB-468; for IC (TGI): read-out: TGI (total growth inhibition concentration)
Method: as §1

[18] = test system: A498 renal cancer cell line; assay: NCI five-dose testing; conditions: for IC50 / LD50 (lethal dose 50) / IC (TGI): A498; for IC (TGI): read-out: TGI (total growth inhibition concentration)
Method: as §1

## O=S(=O)(NCCNc1cc(-c2cn(-c3ccccc3)nc2-c2cccc(O)c2)ccn1)c1ccc(Br)cc1 [Compound 1k, 4-Bromo-N-(2-((4-(3-(3-hydroxyphenyl)-1-phenyl-1H-pyrazol-4-yl)pyridin-2-yl)amino)ethyl) benzenesulfonamide]
[1]
  IC50: 2.11 µM
[2]
  IC50: 2.87 µM
[3]
  IC50: 2.48 µM
[4]
  IC50: 2.54 µM
[5]
  IC50: 2.18 µM
[6]
  IC50: 2.29 µM
[7]
  IC50: 2.34 µM
[8]
  IC50: 2.69 µM
[9]
  IC50: 2.03 µM
[10]
  LD50 (lethal dose 50): >100 µM
  IC50: 2.07 µM
  IC (TGI): 6.4 µM
[11]; HOP-92
  IC50: 2 µM
  LD50 (lethal dose 50): 34.6 µM
  IC (TGI): 5.0 µM
[12]
  LD50 (lethal dose 50): 17.3 µM
  IC50: 2.17 µM
  IC (TGI): 5.0 µM
[13]
  IC50: 1.64 µM
  LD50 (lethal dose 50): 5.6 µM
  IC (TGI): 3.0 µM
[14]
  LD50 (lethal dose 50): 25.6 µM
  IC50: 2.21 µM
  IC (TGI): 5.6 µM
[15]
  IC50: 1.98 µM
  LD50 (lethal dose 50): >100 µM
  IC (TGI): 5.4 µM
[16]
  IC50: 2.32 µM
  LD50 (lethal dose 50): >100 µM
  IC (TGI): 13.7 µM
[17]
  IC50: 2.7 µM
  LD50 (lethal dose 50): >100 µM
  IC (TGI): 7.7 µM
[18]
  IC50: 3.33 µM
  LD50 (lethal dose 50): 34.3 µM
  IC (TGI): 5.4 µM

## O=S(=O)(NCCCNc1cc(-c2cn(-c3ccccc3)nc2-c2cccc(O)c2)ccn1)c1ccc(C(F)(F)F)cc1 [Compound 2o, N-(3-((4-(3-(3-Hydroxyphenyl)-1-phenyl-1H-pyrazol-4-yl)pyridin-2-yl)amino)propyl)-4-(trifluoromethyl)benzenesulfonamide]
[1]
  IC50: 1.9 µM
[2]
  IC50: 2.32 µM
[3]
  IC50: 2.03 µM
[4]
  IC50: 2.79 µM
[5]
  IC50: 1.71 µM
[6]
  IC50: 1.64 µM
[7]
  IC50: 1.87 µM
[8]
  IC50: 2.12 µM
[9]
  IC50: 1.72 µM
[10]; Homo sapiens, PC-3, read-out: LD50 (lethal dose 50)
  LC50 (lethal concentration 50): 18.9 µM
[10]; Homo sapiens
  IC50: 2.87 µM
  IC (TGI): 4.5 µM
[11]; Homo sapiens, HOP-92
  IC50: 1.41 µM
[11]; Homo sapiens, HOP-92, HOP-92
  IC (TGI): 3.6 µM
[11]; Homo sapiens, HOP-92, read-out: LD50 (lethal dose 50)
  LD50 (lethal dose 50): 9.7 µM
[12]; Homo sapiens, HT-29, read-out: LD50 (lethal dose 50)
  CC50: 8.1 µM
[12]; Homo sapiens
  IC50: 0.5 µM
  IC (TGI): 3.1 µM
[13]; Homo sapiens
  IC50: 1.57 µM
  IC (TGI): 2.9 µM
[13]; Homo sapiens, SK-MEL-5, read-out: LD50 (lethal dose 50)
  LC50 (lethal concentration 50): 5.6 µM
[14]; Homo sapiens, U-251, read-out: LD50 (lethal dose 50)
  CC50: 8.1 µM
[14]; Homo sapiens, U-251
  IC50: 1.78 µM
  IC (TGI): 3.2 µM
[15]; Homo sapiens, K562, read-out: LD50 (lethal dose 50)
  CC50: > 100 µM
[15]; Homo sapiens, K562
  IC50: 0.61 µM
  IC (TGI): 5.3 µM
[15]
  IC50: 0.617 µM
[16]; Homo sapiens
  IC50: 3.06 µM
  IC (TGI): 5.1 µM
[16]; Homo sapiens, OVCAR-4, read-out: LD50 (lethal dose 50)
  LC50 (lethal concentration 50): > 100 µM
[17]; Homo sapiens
  IC50: 1.85 µM
  IC (TGI): 5.5 µM
[17]; Homo sapiens, MDA-MB-468, read-out: LD50 (lethal dose 50)
  CC50: > 100 µM
[18]; Homo sapiens
  IC50: 1.09 µM
  IC (TGI): 2.6 µM
[18]; Homo sapiens, A498, read-out: LD50 (lethal dose 50)
  LC50 (lethal concentration 50%): 6.3 µM

## O=S(=O)(NCCNc1cc(-c2cn(-c3ccccc3)nc2-c2cccc(O)c2)ccn1)c1ccc(F)cc1 [Compound 1m, 4-Fluoro-N-(2-((4-(3-(3-hydroxyphenyl)-1-phenyl-1H-pyrazol-4-yl)pyridin-2-yl)amino)ethyl) benzenesulfonamide]
[1]
  IC50: 2.29 µM
[2]
  IC50: 2.68 µM
[3]
  IC50: 2.88 µM
[4]
  IC50: 2.88 µM
[5]
  IC50: 2.51 µM
[6]
  IC50: 2.34 µM
[7]
  IC50: 2.16 µM
[8]
  IC50: 2.65 µM
[9]
  IC50: 2.06 µM
[10]
  LD50 (lethal dose 50): >100 µM
  IC50: 2.29 µM
  IC (TGI): 10.2 µM
[11]; HOP-92
  IC50: 2.03 µM
  LD50 (lethal dose 50): 68.8 µM
  IC (TGI): 8.4 µM
[12]
  LD50 (lethal dose 50): 54.3 µM
  IC50: 1.99 µM
  IC (TGI): 47.9 µM
[13]
  IC50: 1.73 µM
  LD50 (lethal dose 50): 6.0 µM
  IC (TGI): 3.2 µM
[14]
  LD50 (lethal dose 50): 50.9 µM
  IC50: 2.62 µM
  IC (TGI): 6.8 µM
[15]
  IC50: 1.98 µM
  LD50 (lethal dose 50): >100 µM
  IC (TGI): >100 µM
[16]
  IC50: 3.05 µM
  LD50 (lethal dose 50): >100 µM
  IC (TGI): >100 µM
[17]
  IC50: 1.88 µM
  LD50 (lethal dose 50): >100 µM
  IC (TGI): 5.3 µM
[18]
  IC50: 2.32 µM
  LD50 (lethal dose 50): 45.7 µM
  IC (TGI): 9.2 µM
